The values that follow come from patent US20180334447A1, “2,3,4,5-TETRAHYDROPYRIDIN-6-AMINE DERIVATIVES” (JANSSEN PHARMACEUTICA NV, priority 2015, published 2018).

The subject of assay [1] is Abeta 1-42 produced and secreted into the medium of human neuroblastoma SKNBE2 cells. As to the kind of experiment: Cellular αLisa assay in SKNBE2 cells, Abeta 42. The conditions noted are these: SKNBE2 cells expressing hAPP695, incubated for 18 hours; for IC50: Homo sapiens, SKNBE2, 18 h, read-out: Cellular αLisa assay in SKNBE2 cells Abeta 42 pIC50 (converted). In kind it is cell-based. Here is the method: In two αLisa assays the levels of Abeta 1-42 produced and secreted into the medium of human neuroblastoma SKNBE2 cells are quantified. The assay is based on the human neuroblastoma SKNBE2 expressing the wild type Amyloid Precursor Protein (hAPP695). The compounds are diluted and added to these cells, incubated for 18 hours and then measurements of Abeta 1-42 are taken. Abeta 1-42 are measured by sandwich αLisa. αLisa is a sandwich assay using biotinylated antibody AbN/25 attached to streptavidin coated beads and antibody cAb42/26 conjugated acceptor beads for the detection of Abeta 1-42 respectively. In the presence of Abeta 1-42, the beads come into close proximity. The excitation of the donor beads provokes the release of singlet oxygen molecules that trigger a cascade of energy transfer in the acceptor beads, resulting in light emission. Light emission is measured after 1 hour incubation (excitation at […] and emission at 615 nm).
(§1) A best-fit curve is fitted by a minimum sum of squares method to the plot of % Controlmin versus compound concentration. From this an IC50 value (inhibitory concentration causing 50% inhibition of activity) can be obtained.

The subject of assay [2] is Abeta 1-37, Abeta 1-38, Abeta 1-40 and Abeta 1-42 in CSF. As to the kind of experiment: Pharmacology in the Beagle dog: beta-amyloid profile in cerebrospinal fluid (CSF) after a single dose. The assay is classed as in vivo. On the procedure:
Test compounds were tested to evaluate the effect on the beta-amyloid profile in cerebrospinal fluid (CSF) of dogs after a single dose, in combination with pharmacokinetic (PK) follow up and limited safety evaluation.
For each of compound 20, 21, 22 or 41, four beagle dogs (2 males, 2 females) were dosed with vehicle (1 ml/kg of an aqueous solution of 20% cyclodextrin) and 12 beagle dogs (2 males and 2 females per dosage group) were dosed with test compounds as follows:
In the case of compounds 39, 33 and 31, two beagle dogs (1 male, 1 female) were dosed with vehicle (1 ml/kg of an aqueous solution of 20% cyclodextrin) and 4 beagle dogs (2 males and 2 females) were dosed with test compound […] (0.31 mg/kg in 0.31 mg/ml of an aqueous 20% cyclodextrin solution) on an empty stomach.
Eight hours after dosing the animals got access to their regular meal for 30 minutes. Blood was taken for PK follow up (0.5, 1, 2, 4, 8, 25 and 49 hours) and serum samples for biochemistry were taken before and at 8 and 25 h after dosing. The CSF samples were used for measurement of Abeta 1-37, Abeta 1-38, Abeta 1-40 and Abeta 1-42.

The target of assay [3] is T1, recombinant BACE2 protein (Homo sapiens, UniProt Q9Y5Z0).
T1 construct: recombinant BACE2 protein in a final concentration of 0.4 μg/ml
T1 sequence (Q9Y5Z0 63-518): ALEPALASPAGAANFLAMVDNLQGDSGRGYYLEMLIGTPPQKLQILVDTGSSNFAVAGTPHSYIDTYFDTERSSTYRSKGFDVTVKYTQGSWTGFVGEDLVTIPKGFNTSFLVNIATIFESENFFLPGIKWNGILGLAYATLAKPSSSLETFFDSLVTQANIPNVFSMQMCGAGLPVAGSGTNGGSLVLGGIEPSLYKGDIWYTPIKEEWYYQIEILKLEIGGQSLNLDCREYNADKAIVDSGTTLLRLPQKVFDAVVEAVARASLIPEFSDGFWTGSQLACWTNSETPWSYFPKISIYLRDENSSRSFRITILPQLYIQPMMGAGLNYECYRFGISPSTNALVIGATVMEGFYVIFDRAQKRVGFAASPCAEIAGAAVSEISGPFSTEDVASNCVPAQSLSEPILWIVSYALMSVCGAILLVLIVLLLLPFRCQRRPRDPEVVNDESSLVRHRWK
The assay is described as follows: BACE2 biochemical FRET based assay. The conditions noted are these: BACE2, 450 minutes at room temperature, pH 5.0; read-out: Biochemical FRET based assay pIC50 (converted).
From the text: (§2) This assay is a Fluorescence Resonance Energy Transfer Assay (FRET) based assay. The substrate for this assay contains the ‘Swedish’ Lys-Met/Asn-Leu mutation of the amyloid precursor protein (APP) beta-secretase cleavage site. This substrate also contains two fluorophores: (7-methoxycoumarin-4-yl) acetic acid (Mca) is a fluorescent donor with excitation wavelength at 320 nm and emission at 405 nm and 2,4-Dinitrophenyl (Dnp) is a proprietary quencher acceptor. […] Upon cleavage by the beta-secretase, the fluorophore Mca is separated from the quenching group Dnp, restoring the full fluorescence yield of the donor. The increase in fluorescence is linearly related to the rate of proteolysis.
Briefly in a 384-well format recombinant BACE2 protein in a final concentration of 0.4 μg/ml is incubated for 450 minutes at room temperature with 10 μM substrate in incubation buffer (50 mM Citrate buffer pH 5.0, 0.05% PEG, no DMSO) in the absence or presence of compound. Next the amount of proteolysis is directly measured by fluorescence measurement at T=0 and T=450 (excitation at 320 nm and emission at 405 nm). Results are expressed in RFU (Relative Fluorescence Units), as difference between T450 and T0.
as §1

Assay [4] concerns the target T2, recombinant BACE1 protein (Homo sapiens, UniProt P56817).
T2 construct: recombinant BACE1 protein in a final concentration of 1 μg/ml
The assay is described as follows: BACE1 biochemical FRET based assay - Method 1. The conditions noted are these: BACE1, 120 minutes at room temperature, pH 5.0; read-out: Biochemical FRET based assay - Method 1 pIC50 (converted).
From the text: as §2, with “this assay is an APP derived 13 amino acids peptide that contains the” for “this assay contains the”, “cleavage by BACE1, the fluorophore” for “cleavage by the beta-secretase, the fluorophore”
Briefly in a 384-well format recombinant BACE1 protein in a final concentration of 1 μg/ml is incubated for 120 minutes at room temperature with 10 μm substrate in incubation buffer (40 mM Citrate buffer pH 5.0, 0.04% PEG, 4% DMSO) in the absence or presence of compound. Next the amount of proteolysis is directly measured by fluorescence measurement at T=0 and T=120 (excitation at 320 nm and emission at 405 nm). Results are expressed in RFU (Relative Fluorescence Units), as difference between T120 and T0.
as §1

Assay [5] has as its system Abetatotal in human neuroblastoma SKNBE2 cells. The assay is described as follows: Cellular αLisa assay in SKNBE2 cells, Abetatotal. The assay is classed as cell-based. The conditions noted are these: SKNBE2 cells expressing hAPP695, incubated for 18 hours; for IC50: Homo sapiens, SKNBE2, 18 h, read-out: Cellular αLisa assay in SKNBE2 cells Abetatotal pIC50 (converted).
[6] abbreviates: Canis lupus familiaris, single dose 0.31 mg/kg, 8 h post dosing, read-out: % Decrease in Abeta 1-42 at 8 h post dosing compared to own baseline.
Setting [7] is: Canis lupus familiaris, single dose 0.08 mg/kg, 8 h post dosing, read-out: % Decrease in Abeta 1-42 at 8 h post dosing compared to own baseline.
Where [8] appears, read: single dose 0.31 mg/kg, 25 h post dosing (b).

T2 sequence (P56817 46-501): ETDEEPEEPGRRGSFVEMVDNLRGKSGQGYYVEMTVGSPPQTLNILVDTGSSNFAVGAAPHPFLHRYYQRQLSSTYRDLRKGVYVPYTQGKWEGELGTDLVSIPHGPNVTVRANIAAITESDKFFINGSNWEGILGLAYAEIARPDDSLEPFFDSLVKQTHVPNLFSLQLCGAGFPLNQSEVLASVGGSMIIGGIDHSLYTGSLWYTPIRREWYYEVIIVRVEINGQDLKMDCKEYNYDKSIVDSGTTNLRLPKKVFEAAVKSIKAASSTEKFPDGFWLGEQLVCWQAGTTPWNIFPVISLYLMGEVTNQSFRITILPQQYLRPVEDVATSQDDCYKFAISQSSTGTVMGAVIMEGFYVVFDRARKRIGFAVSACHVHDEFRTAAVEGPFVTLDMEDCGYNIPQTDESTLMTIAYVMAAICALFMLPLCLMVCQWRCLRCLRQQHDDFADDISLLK

For `CC(C)S(=O)(=O)C1(C)CCC(CF)(c2cc(NC(=O)c3ccc(F)cn3)ccc2F)N=C1N` (single isomer, unassigned) [Compound 33], in assay [1], the “Cellular αLisa assay in SKNBE2 cells Abeta 42 pIC50” value is 8.32. In addition, in assay [2] (setting [6]), the inhibition in vivo at 0.31 mg/kg amounted to 34%. The figures for the IC50 in assay [3] and in assay [4] were 3.55 nM and 4.27 nM, respectively. Besides, the “Cellular αLisa assay in SKNBE2 cells Abetatotal pIC50” value in assay [5] came out at 8.37.

On to `CC(C)S(=O)(=O)C1(C)CCC(CF)(c2cc(NC(=O)c3ccc(F)cn3)ccc2F)N=C1N` (single isomer, unassigned) [Compound 34], for which the “Cellular αLisa assay in SKNBE2 cells Abeta 42 pIC50” value in assay [1] amounted to 5.56. The figures for the IC50 in assay [3] and in assay [4] were 4270 nM and 3630 nM, respectively. Also, in assay [5], the “Cellular αLisa assay in SKNBE2 cells Abetatotal pIC50” value came to 5.72.

With `Cc1cc(C#N)cnc1C(=O)Nc1ccc(F)c([C@]2(CF)CC[C@@](C)(S(C)(=O)=O)C(N)=N2)c1` [Compound 21], the IC50 was 0.813 nM in assay [1], 5.01 nM in assay [3] and 1.38 nM in assay [4]. Also, in assay [2] (setting [7]), the inhibition in vivo at 0.08 mg/kg was determined as 49%. Moreover, the inhibition in vivo at 0.31 mg/kg in assay [2] (setting [6]) turned out to be 78%. The inhibition in vivo at 0.63 mg/kg in assay [2] (Canis lupus familiaris, single dose 0.63 mg/kg, 8 h post dosing, read-out: % Decrease in Abeta 1-42 at 8 h post dosing compared to own baseline) came to 70%. Further, the “% Decrease in Abeta 1-42 at 24 h^(a) or 25 h^(b) post dosing compared to own baseline” value in assay [2] (setting [8]) is 69^(b) %.

Take `CC1(S(C)(=O)=O)CCC(CF)(c2cc(NC(=O)c3ccc(C#N)cn3)ccc2F)N=C1N` (stereo not drawn) [Compound 22]: the IC50 in assay [1] was 1.15 nM; in assay [3], 5.25 nM; in assay [4] it was 1.12 nM. The inhibition in vivo at 0.08 mg/kg in assay [2] (setting [7]) came to 50%. For the same molecule, the inhibition in vivo at 0.31 mg/kg in assay [2] (setting [6]) is 78%. In addition, in assay [2] (single dose 0.08 mg/kg, 24 h post dosing (a)), the “% Decrease in Abeta 1-42 at 24 h^(a) or 25 h^(b) post dosing compared to own baseline” value is 54^(a) %. Besides, the “% Decrease in Abeta 1-42 at 49 h post dosing compared to own baseline” value in assay [2] (single dose 0.31 mg/kg) came to 71%.

In the case of `C[C@@]1(c2cc(NC(=O)c3ccc(F)cn3)ccc2F)CC[C@@](CF)(S(C)(=O)=O)C(N)=N1` [Compound 26], the IC50 in assay [1] is 5.25 nM; in assay [3] it was 11 nM; in assay [4] it was 14.8 nM; in assay [5], 4.07 nM.

For `COc1cnc(C(=O)Nc2ccc(F)c([C@@]3(C)N=C(N)[C@](C)(C#N)C[C@]3(C)F)c2)cn1` [Compound 27], the IC50 was 17.4 nM in assay [1], 389 nM in assay [3], 41.7 nM in assay [4] and 16.2 nM in assay [5].

In the case of `COc1cnc(C(=O)Nc2ccc(F)c([C@@]3(C)N=C(N)[C@@](C)(C#N)C[C@]3(C)F)c2)cn1` [Compound 28], the IC50 in assay [1] is 550 nM; in assay [3] it was greater than 10000 nM; in assay [4], 1150 nM; in assay [5] it was 501 nM.

Consider `CC[C@]1(S(C)(=O)=O)CC[C@@](CF)(c2cc(NC(=O)c3ccc(F)cn3)ccc2F)N=C1N` [Compound 29a], for which the IC50 in assay [1] is 851 nM; in assay [3], 776 nM; in assay [4] it was 871 nM; in assay [5], 182 nM.

Take `CCC1(S(=O)(=O)CC)CCC(CF)(c2cc(NC(=O)c3ccc(F)cn3)ccc2F)N=C1N` (stereo not drawn) [Compound 30]: the IC50 in assay [1] is 15.8 nM; in assay [3] it was 24.5 nM; in assay [4], 15.8 nM; in assay [5], 13.5 nM.

Turning to `CC1(S(C)(=O)=O)CCC(CF)(c2cc(NC(=O)c3cnc(OCC(F)F)cn3)ccc2F)N=C1N` (stereo not drawn) [Compound 35], the IC50 is 3.09 nM in assay [1], 44.7 nM in assay [3], 3.72 nM in assay [4] and 2.82 nM in assay [5].

With `CC1(S(C)(=O)=O)CCC(CF)(c2cc(NC(=O)c3ncc(OC(F)F)cn3)ccc2F)N=C1N` (stereo not drawn) [Compound 36], the IC50 is 4.37 nM in assay [1], 28.2 nM in assay [3], 4.27 nM in assay [4] and 4.37 nM in assay [5].

As for `C[C@@]1(S(C)(=O)=O)CC[C@@](CF)(c2cc(NC(=O)c3cnc(OCF)cn3)ccc2F)N=C1N` [Compound 41], the results for the IC50 in assay [1], in assay [3] and in assay [4] were 1.62 nM, 16.6 nM and 2.19 nM, respectively. Besides, in assay [2] (Canis lupus familiaris, single dose 0.16 mg/kg, 8 h post dosing, read-out: % Decrease in Abeta 1-42 at 8 h post dosing compared to own baseline), the inhibition in vivo at 0.16 mg/kg was found to be 71%. In assay [2] (setting [6]), the inhibition in vivo at 0.31 mg/kg is 78%. Moreover, the inhibition in vivo at 1.25 mg/kg in assay [2] (Canis lupus familiaris, single dose 1.25 mg/kg, 8 h post dosing, read-out: % Decrease in Abeta 1-42 at 8 h post dosing compared to own baseline) worked out at 89%. Further, the “% Decrease in Abeta 1-42 at 24 h^(a) or 25 h^(b) post dosing compared to own baseline” value in assay [2] (single dose 0.16 mg/kg, 25 h post dosing (b)) is on record as 26^(b) %; in assay [2] (setting [8]) it was 49^(b) %. The “% Decrease in Abeta 1-42 at 49 h post dosing compared to own baseline” value in assay [2] (single dose 1.25 mg/kg) stood at 41%.

On to `CO[C@@H]1C[C@@](C)(S(C)(=O)=O)C(N)=N[C@]1(C)c1cc(NC(=O)c2cnc(OCF)cn2)ccc1F` [Compound 48a], for which the figures for the IC50 in assay [1], in assay [3] and in assay [4] were 16.6 nM, 447 nM and 24 nM, respectively.

Turning to `CO[C@H]1C[C@@](C)(C#N)C(N)=N[C@]1(C)c1cc(NC(=O)c2cnc(OCF)cn2)ccc1F` [Compound 49a], the results for the IC50 in assay [1], in assay [3] and in assay [4] were 17 nM, 324 nM and 33.9 nM, respectively.
